Patent US20230085307A1, “PYRIDAZINONE COMPOUND AND HERBICIDE” (NISSAN CHEMICAL CORPORATION, priority 2019, published 2023)

Key:
late watergrass = assay: Test Example 2: herbicidal activity, application during weed generation under submerged conditions (Table 17, symbol A); type: in vivo, late watergrass (Echinochloa oryzicola); conditions: AAH 320 g/ha; application during weed generation, submerged conditions
Summary of the method: (§1)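 Wagner pot, alluvial soil, 4 cm flood; mixed sowing of all species; greenhouse 25° C.–30° C. Emulsifiable formulation, water-diluted to predetermined dose, applied to paddy water at 1–2 leaf stage. Effect rated at 3 wk using the earlier test's scoring criteria.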

Japanese bulrush = assay: Test Example 2: herbicidal activity, application during weed generation under submerged conditions (Table 17, symbol B); type: in vivo, Japanese bulrush (Schoenoplectus juncoides); conditions: AAH 320 g/ha; application during weed generation, submerged conditions
Summary of the method: as §1

barnyard grass [1] = assay: Test Example 3: herbicidal effect by foliage application, Wagner pot (Table 18, symbol H); type: in vivo, barnyard grass (Echinochloa crus-galli); conditions: 320 g/ha
Summary of the method: (§2)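 Plants were sown in alluvial soil held under 0.1–0.5 cm standing water and grown 14 days in a greenhouse at 25–30 °C. An emulsifiable formulation, water-diluted to the set dose, was then sprayed onto the foliage, and effects were scored three weeks later using previously defined criteria.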

rice flat sedge = assay: Test Example 3: herbicidal effect by foliage application, Wagner pot (Table 18, symbol E); type: in vivo, rice flat sedge (Cyperus iria); conditions: 320 g/ha
Summary of the method: as §2

southern crabgrass [2] = assay: Test Example 4: herbicidal effect by soil treatment (Table 19, symbol F); type: in vivo, southern crabgrass (Digitaria ciliaris); conditions: amount of applied herbicide 320 g/ha
Summary of the method: (§3)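 Three weeks of greenhouse growth at 25° C. to 30° C. followed a uniform surface spray of water-diluted emulsion at a predetermined herbicide amount. Seeds had been sown beforehand under about 1.5 cm of sterilized diluvial soil. Grading followed criteria set out in an earlier test.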

green foxtail = assay: Test Example 4: herbicidal effect by soil treatment (Table 19, symbol G); type: in vivo, green foxtail (Setaria viridis); conditions: amount of applied herbicide 320 g/ha
Summary of the method: as §3

barnyard grass [3] = assay: Test Example 4: herbicidal effect by soil treatment (Table 19, symbol H); type: in vivo, barnyard grass (Echinochloa crus-galli); conditions: amount of applied herbicide 320 g/ha
Summary of the method: as §3

wild oat [4] = assay: Test Example 4: herbicidal effect by soil treatment (Table 19, symbol I); type: in vivo, wild oat (Avena fatua); conditions: amount of applied herbicide 320 g/ha
Summary of the method: as §3

Italian ryegrass [5] = assay: Test Example 4: herbicidal effect by soil treatment (Table 19, symbol K); type: in vivo, Italian ryegrass (Lolium multiflorum); conditions: amount of applied herbicide 320 g/ha
Summary of the method: as §3

velvetleaf = assay: Test Example 4: herbicidal effect by soil treatment (Table 19, symbol M); type: in vivo, velvetleaf (Abutilon theophrasti); conditions: amount of applied herbicide 320 g/ha
Summary of the method: as §3

redroot pigweed [6] = assay: Test Example 4: herbicidal effect by soil treatment (Table 19, symbol N); type: in vivo, redroot pigweed (Amaranthus retroflexus); conditions: amount of applied herbicide 320 g/ha
Summary of the method: as §3

lambsquarters [7] = assay: Test Example 4: herbicidal effect by soil treatment (Table 19, symbol O); type: in vivo, lambsquarters (Chenopodium album); conditions: amount of applied herbicide 320 g/ha
Summary of the method: as §3

chickweed = assay: Test Example 4: herbicidal effect by soil treatment (Table 19, symbol P); type: in vivo, common chickweed (Stellaria media); conditions: amount of applied herbicide 320 g/ha
Summary of the method: as §3

southern crabgrass [8] = assay: Test Example 5: herbicidal effect by foliage application, plastic box (Table 20, symbol F); type: in vivo, southern crabgrass (Digitaria ciliaris); conditions: foliage application, three weeks after application; for F: southern crabgrass, herbicidal effect: AAH 320 g/ha
Summary of the method: (§4)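 Plants sown in sterilized diluvial soil and grown 14 days in a greenhouse at 25° C to 30° C, then sprayed on the foliage with the compound's emulsion diluted in water to a predetermined herbicide amount. Injury to weeds and crops scored three weeks after application on a visual rating scale.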

barnyard grass [9] = assay: Test Example 5: herbicidal effect by foliage application, plastic box (Table 20, symbol H); type: in vivo, barnyard grass (Echinochloa crus-galli); conditions: foliage application, three weeks after application; for H: barnyard grass, herbicidal effect: AAH 320 g/ha
Summary of the method: as §4

wild oat [10] = assay: Test Example 5: herbicidal effect by foliage application, plastic box (Table 20, symbol I); type: in vivo, wild oat (Avena fatua); conditions: foliage application, three weeks after application; for I: wild oat, herbicidal effect: AAH 320 g/ha
Summary of the method: as §4

blackgrass = assay: Test Example 5: herbicidal effect by foliage application, plastic box (Table 20, symbol J); type: in vivo, blackgrass (Alopecurus myosuroides); conditions: foliage application, three weeks after application; for J: blackgrass, herbicidal effect: AAH 320 g/ha
Summary of the method: as §4

Italian ryegrass [11] = assay: Test Example 5: herbicidal effect by foliage application, plastic box (Table 20, symbol K); type: in vivo, Italian ryegrass (Lolium multiflorum); conditions: foliage application, three weeks after application; for K: Italian ryegrass, herbicidal effect: AAH 320 g/ha
Summary of the method: as §4

windgrass = assay: Test Example 5: herbicidal effect by foliage application, plastic box (Table 20, symbol L); type: in vivo, windgrass (Apera spica-venti); conditions: foliage application, three weeks after application; for L: windgrass, herbicidal effect: AAH 320 g/ha
Summary of the method: as §4

redroot pigweed [12] = assay: Test Example 5: herbicidal effect by foliage application, plastic box (Table 20, symbol N); type: in vivo, redroot pigweed (Amaranthus retroflexus); conditions: foliage application, three weeks after application; for N: redroot pigweed, herbicidal effect: AAH 320 g/ha
Summary of the method: as §4

lambsquarters [13] = assay: Test Example 5: herbicidal effect by foliage application, plastic box (Table 20, symbol O); type: in vivo, lambsquarters (Chenopodium album); conditions: foliage application, three weeks after application; for O: lambsquarters, herbicidal effect: AAH 320 g/ha
Summary of the method: as §4

persian speedwell = assay: Test Example 5: herbicidal effect by foliage application, plastic box (Table 20, symbol R); type: in vivo, Persian speedwell (Veronica persica); conditions: foliage application, three weeks after application; for R: persian speedwell, herbicidal effect: AAH 320 g/ha
Summary of the method: as §4

With `CCCC(=O)Oc1c(C)nn(C)c(=O)c1-c1c(-c2ccc(OC)c(OC)c2)sc2ccccc12` [1-073] the “herbicidal effect rating, A: late watergrass” value (late watergrass) was 4 (Herbicidal rate of 70% or more and less than 90%), the “herbicidal effect rating, B: Japanese bulrush” value (“herbicidal effect rating, B” below) (Japanese bulrush) was 5 (Herbicidal rate of 90% or more (almost completely withered)) and the “herbicidal effect on H (barnyard grass), rating 0-5” value (shortened to “herbicidal effect on H”) (barnyard grass [1]) was 5 (Herbicidal rate of 90% or more (almost completely withered)). For the same compound, the “herbicidal effect on E (rice flat sedge), rating 0-5” value (from here on “herbicidal effect on E”) (rice flat sedge) was 5 (Herbicidal rate of 90% or more (almost completely withered)), the “herbicidal effect rating, F: southern crabgrass” value (shortened to “herbicidal effect rating, F”) (southern crabgrass [2]) was 5 (Herbicidal rate of 90% or more (almost completely withered)) and the “herbicidal effect rating, G: green foxtail” value (“herbicidal effect rating, G” for short) (green foxtail) was 5 (Herbicidal rate of 90% or more (almost completely withered)). For the same compound, the “herbicidal effect rating, H: barnyard grass” value (from here on “herbicidal effect rating, H”) (barnyard grass [3]) was 4 (Herbicidal rate of 70% or more and less than 90%), the “herbicidal effect rating, I: wild oat” value (wild oat [4]) was 2 (Herbicidal rate of 20% or more and less than 40%) and the “herbicidal effect rating, K: Italian ryegrass” value (“herbicidal effect rating, K” below) (Italian ryegrass [5]) was 5 (Herbicidal rate of 90% or more (almost completely withered)). For the same compound, the “herbicidal effect rating, M: velvetleaf” value (velvetleaf) was 4 (Herbicidal rate of 70% or more and less than 90%), the “herbicidal effect rating, N: redroot pigweed” value (shortened to “herbicidal effect rating, N”) (redroot pigweed [6]) was 4 (Herbicidal rate of 70% or more and less than 90%) and the “herbicidal effect rating, O: lambsquarters” value (shortened to “herbicidal effect rating, O”) (lambsquarters [7]) was 5 (Herbicidal rate of 90% or more (almost completely withered)). The “herbicidal effect rating, P: chickweed” value (chickweed) was 4 (Herbicidal rate of 70% or more and less than 90%), the “herbicidal effect grade, F: southern crabgrass” value (southern crabgrass [8]; 320 g/ha) was 5 (Herbicidal rate of 90% or more (almost completely withered)) and the “herbicidal effect grade, H: barnyard grass” value (barnyard grass [9]; 320 g/ha) was 5 (Herbicidal rate of 90% or more (almost completely withered)). For the same compound, the “herbicidal effect grade, I: wild oat” value (wild oat [10]; 320 g/ha) was 2 (Herbicidal rate of 20% or more and less than 40%), the “herbicidal effect grade, J: blackgrass” value (blackgrass; 320 g/ha) was 4 (Herbicidal rate of 70% or more and less than 90%) and the “herbicidal effect grade, K: Italian ryegrass” value (Italian ryegrass [11]; 320 g/ha) was 5 (Herbicidal rate of 90% or more (almost completely withered)). For the same compound, the “herbicidal effect grade, L: windgrass” value (windgrass; 320 g/ha) was 0 (Herbicidal rate of 5% or less (almost no effect)), the “herbicidal effect grade, N: redroot pigweed” value (redroot pigweed [12]; 320 g/ha) was 5 (Herbicidal rate of 90% or more (almost completely withered)) and the “herbicidal effect grade, O: lambsquarters” value (lambsquarters [13]; 320 g/ha) was 5 (Herbicidal rate of 90% or more (almost completely withered)). The “herbicidal effect grade, R: persian speedwell” value (persian speedwell; 320 g/ha) was 5 (Herbicidal rate of 90% or more (almost completely withered)).

`CCCC(=O)Oc1c(C)nn(C)c(=O)c1-c1c(-c2ccc3c(c2)OCCO3)sc2ccccc12` [1-090] was tested, and the “herbicidal effect rating, A: late watergrass” value (late watergrass) was 4 (Herbicidal rate of 70% or more and less than 90%), the “herbicidal effect rating, B” value (Japanese bulrush) was 3 (Herbicidal rate of 40% or more and less than 70%) and the “herbicidal effect on H” value (barnyard grass [1]) was 5 (Herbicidal rate of 90% or more (almost completely withered)). For the same compound, the “herbicidal effect on E” value (rice flat sedge) was 5 (Herbicidal rate of 90% or more (almost completely withered)), the “herbicidal effect rating, F” value (southern crabgrass [2]) was 0 (Herbicidal rate of 5% or less (almost no effect)) and the “herbicidal effect rating, G” value (green foxtail) was 3 (Herbicidal rate of 40% or more and less than 70%). For the same compound, the “herbicidal effect rating, H” value (barnyard grass [3]) was 1 (Herbicidal rate of 5% or more and less than 20%), the “herbicidal effect rating, I: wild oat” value (wild oat [4]) was 0 (Herbicidal rate of 5% or less (almost no effect)) and the “herbicidal effect rating, K” value (Italian ryegrass [5]) was 0 (Herbicidal rate of 5% or less (almost no effect)). For the same compound, the “herbicidal effect rating, M: velvetleaf” value (velvetleaf) was 0 (Herbicidal rate of 5% or less (almost no effect)), the “herbicidal effect rating, N” value (redroot pigweed [6]) was 2 (Herbicidal rate of 20% or more and less than 40%) and the “herbicidal effect rating, O” value (lambsquarters [7]) was 2 (Herbicidal rate of 20% or more and less than 40%). For the same compound, the “herbicidal effect rating, P: chickweed” value (chickweed) was 4 (Herbicidal rate of 70% or more and less than 90%), the “F: southern crabgrass, herbicidal effect” value (southern crabgrass [8]) was 3 (Herbicidal rate of 40% or more and less than 70%) and the “H: barnyard grass, herbicidal effect” value (barnyard grass [9]) was 4 (Herbicidal rate of 70% or more and less than 90%). The “I: wild oat, herbicidal effect” value (wild oat [10]) was 0 (Herbicidal rate of 5% or less (almost no effect)), the “J: blackgrass, herbicidal effect” value (blackgrass) was 2 (Herbicidal rate of 20% or more and less than 40%) and the “K: Italian ryegrass, herbicidal effect” value (Italian ryegrass [11]) was 3 (Herbicidal rate of 40% or more and less than 70%). The “L: windgrass, herbicidal effect” value (windgrass) was 0 (Herbicidal rate of 5% or less (almost no effect)), the “N: redroot pigweed, herbicidal effect” value (redroot pigweed [12]) was 0 (Herbicidal rate of 5% or less (almost no effect)) and the “O: lambsquarters, herbicidal effect” value (lambsquarters [13]) was 2 (Herbicidal rate of 20% or more and less than 40%). The “R: persian speedwell, herbicidal effect” value (persian speedwell) was 5 (Herbicidal rate of 90% or more (almost completely withered)).

With `COC(=O)Oc1c(C)nn(C)c(=O)c1-c1c(-c2ccc3c(c2)OCCO3)sc2ccccc12` [1-091] the “herbicidal effect rating, A: late watergrass” value (late watergrass) was 3 (Herbicidal rate of 40% or more and less than 70%), the “herbicidal effect rating, B” value (Japanese bulrush) was 4 (Herbicidal rate of 70% or more and less than 90%) and the “herbicidal effect on H” value (barnyard grass [1]) was 5 (Herbicidal rate of 90% or more (almost completely withered)). For the same compound, the “herbicidal effect on E” value (rice flat sedge) was 5 (Herbicidal rate of 90% or more (almost completely withered)), the “herbicidal effect rating, F” value (southern crabgrass [2]) was 3 (Herbicidal rate of 40% or more and less than 70%) and the “herbicidal effect rating, G” value (green foxtail) was 5 (Herbicidal rate of 90% or more (almost completely withered)). The “herbicidal effect rating, H” value (barnyard grass [3]) was 5 (Herbicidal rate of 90% or more (almost completely withered)), the “herbicidal effect rating, I: wild oat” value (wild oat [4]) was 0 (Herbicidal rate of 5% or less (almost no effect)) and the “herbicidal effect rating, K” value (Italian ryegrass [5]) was 0 (Herbicidal rate of 5% or less (almost no effect)). For the same compound, the “herbicidal effect rating, M: velvetleaf” value (velvetleaf) was 5 (Herbicidal rate of 90% or more (almost completely withered)), the “herbicidal effect rating, N” value (redroot pigweed [6]) was 3 (Herbicidal rate of 40% or more and less than 70%) and the “herbicidal effect rating, O” value (lambsquarters [7]) was 4 (Herbicidal rate of 70% or more and less than 90%). The “herbicidal effect rating, P: chickweed” value (chickweed) was 5 (Herbicidal rate of 90% or more (almost completely withered)), the “F: southern crabgrass, herbicidal effect” value (southern crabgrass [8]) was 5 (Herbicidal rate of 90% or more (almost completely withered)) and the “H: barnyard grass, herbicidal effect” value (barnyard grass [9]) was 5 (Herbicidal rate of 90% or more (almost completely withered)). For the same compound, the “I: wild oat, herbicidal effect” value (wild oat [10]) was 2 (Herbicidal rate of 20% or more and less than 40%), the “J: blackgrass, herbicidal effect” value (blackgrass) was 3 (Herbicidal rate of 40% or more and less than 70%) and the “K: Italian ryegrass, herbicidal effect” value (Italian ryegrass [11]) was 4 (Herbicidal rate of 70% or more and less than 90%). For the same compound, the “L: windgrass, herbicidal effect” value (windgrass) was 1 (Herbicidal rate of 5% or more and less than 20%), the “N: redroot pigweed, herbicidal effect” value (redroot pigweed [12]) was 5 (Herbicidal rate of 90% or more (almost completely withered)) and the “O: lambsquarters, herbicidal effect” value (lambsquarters [13]) was 4 (Herbicidal rate of 70% or more and less than 90%). The “R: persian speedwell, herbicidal effect” value (persian speedwell) was 5 (Herbicidal rate of 90% or more (almost completely withered)).
